How the values were obtained:
[1] = tested on: patients with relapsed and refractory acute myeloid leukemia (AML); settings: low dose with infrequent administration; cited from earlier work
human CD14+ monocytes = assay: Cytokine/chemokine production by primary human CD14+ monocytes; type: cell-based
[2] = tested on: patients with advanced myeloid malignancies (AML, MDS, CMML); assay: Phase 1 single-arm dose escalation trial in patients with advanced myeloid malignancies
Method: Entry criteria included CD33 expression on >50% of the marrow blasts to ensure that adequate target antigen was present. […] Clinical response was assessed by bone marrow morphology and hematologic improvement. […] Among AML patients, 6 had antecedent hematologic disorder. Dosing cohorts included 1.5 (6), 2.5 (4), 4 (4), and 8 mg/kg (17).

HEL 92.1.7 cells = assay: Complement-dependent cytotoxicity (CDC) on MDR+ CD33-positive AML cell line; type: cell-based, human; settings: HEL 92.1.7 cells; FIG. 4
Method: The purpose of this study was to determine whether the cytotoxic effects of an anti-CD33 antibody (HuM195) on AML cells could be enhanced by combination treatment with chemotherapeutic drugs. An MDR^+, CD33-positive AML cell line (HEL 92.1.7) was either untreated or preincubated with the indicated concentrations of thalidomide or 5-azacytidine for two hours prior to exposure to the anti-CD33 Ab. Cytotoxic activity was measured using a complement-dependent cytotoxicity (CDC) activity.

[3] = tested on: primary human macrophages; assay: Macrophage migration in response to chemoattractants (CytoSelect Cell Migration Assay); type: cell-based
Method: (§1) The migration of macrophages in response to challenge with plating media containing 10% human serum, 20% conditioned tumor cell media, or 50 ng/ml TGF-β, VEGF, TNF-α, or IFN-γ was evaluated using the CytoSelect Cell Migration Assay (Cell Biolabs, San Diego, Calif.). […] The study was stopped 18 hours later and migration was evaluated after dissociation of the cells from the membrane followed by detection with Cyquant GR dye.
as §1, with “serum or” for “serum,”, “media” for “media, or 50 ng/ml TGF-β, VEGF, TNF-α, or IFN-γ”, “studies were” for “study was”, “h” for “hours”

KG-1 AML cell line = assay: Cytokine production by KG-1 AML cell line; type: cell-based; settings: 2.5 μg/ml pre-treatment, then 1 ng/ml TNF-alpha; media harvested 18 h later; versus control antibody
Method: Media was harvested 18 h later for cytokine analyses.

CD33 [4] = biological target: T1, CD33 (Homo sapiens, UniProt P20138); assay: SGN-33 signaling in HL-60 cells, primary human monocytes and macrophages (CD33 immunoprecipitation, Western blot); type: cell-based; parameters: endogenous in cells; host or cells: HL-60 (ATCC); primary human CD14+ monocytes (Cambrex); macrophages derived from human PBMCs
Method: Deglycosylation was confirmed by CE-SDS. […] Cell lysates were prepared and CD33 immunoprecipitated using an anti-CD33 rabbit polyclonal antibody (Santa Cruz Biotechnology, Santa Cruz, Calif.) prior to SDS PAGE gel electrophoresis. Western blot analyses of these samples were performed using the 4G10 phosphotyrosine antibody (Upstate Biotechnology, Temucula, Calif.), anti-CD33 antibody (NovoCastra, Norwell, Mass.), and anti-SHP-1 antibody (Calbiochem, San Diego, Calif.). Control lysate for SHP-1 was prepared from a B cell lymphoma cell line.

HL-60 cells = assay: Mouse AML model, HL-60 cells injected intravenously; type: in vivo, mice; settings: q4d×5, ip, FIG. 24
Method: Mice were implanted with an AML cell line, HL-60, as follows: 5 million HL-60 cells were injected intravenously. The mice were treated with lintuzumab (10 mg/kg, q4d×4, ip), cytarabine (1 mg/kg, 5 mg/kg or 25 mg/kg, q1d×10, or 50 mg/kg or 100 mg/kg, q2d×5, ip) or lintuzumab with cytarabine (dosed as described previously). Treatment began on day one.
To confirm the data of the in vitro study, mice were implanted with an AML cell line, HL-60, as follows: 5 million HL-60 cells were injected intravenously. […] Treatment began on day one.

[5] = tested on: primary human macrophages
Method: (§2) Macrophages were harvested, counted, and cultured in 96-well plates at 35,000 cells per well. G-CSF-mobilized CD14^+ monocytes (Cambrex) were cultured in 96-well plates at 100,000 cells per well (adherent cells) in sterile polypropylene dishes (non-adherent cells).

[6] = tested on: primary human CD14+ monocytes
Method: as §2

CD33 [7] = biological target: T1, CD33; assay: Recruitment of SHP phosphatases / Syk to CD33 in HL-60 cells (immunoprecipitation, Western blot); type: cell-based; parameters: endogenous in cells; host or cells: HL-60 (ATCC); primary human CD14+ monocytes (Cambrex); macrophages derived from human PBMCs
Method: To determine whether the humanized M195 antibody also recruits SHP phosphatases, HL-60 cells were treated with soluble or cross-linked anti-CD33 antibodies. Cell extracts were prepared and CD33 was immunoprecipitated with an anti-CD33 antibody (MY9 clone). Western blotting was performed with an anti-SHP-1 antibody (sc-287; Santa Cruz Biotechnology, Inc., Santa Cruz, Calif.).

[8] = HL-60 AML cells and primary human monocytes or macrophages, soluble SGN-33, 30 minutes, FIG. 15

T1 sequence (P20138 18-364): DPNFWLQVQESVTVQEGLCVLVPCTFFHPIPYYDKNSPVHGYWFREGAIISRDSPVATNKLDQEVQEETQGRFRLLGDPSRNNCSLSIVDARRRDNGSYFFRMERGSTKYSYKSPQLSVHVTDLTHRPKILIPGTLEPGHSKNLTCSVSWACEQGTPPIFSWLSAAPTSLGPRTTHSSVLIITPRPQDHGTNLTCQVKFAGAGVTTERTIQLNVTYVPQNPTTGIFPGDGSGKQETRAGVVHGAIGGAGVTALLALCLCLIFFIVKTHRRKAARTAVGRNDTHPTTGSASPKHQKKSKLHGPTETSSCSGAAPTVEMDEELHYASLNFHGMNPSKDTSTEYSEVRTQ

Which blast cells [1] does the source give for “SGN-33: anti-CD33 antibody, a humanized version of mouse monoclonal antibody M195” here?
The blast cells was “induced significant reductions in blast cells”.

And the “production of IL-6, TNF-α, MCP-1, IL-8, and RANTES” value (human CD14+ monocytes; CD14+ primary human monocytes activated with IFN-γ, previous studies (Example 3))?
The value was “significantly reduced”.

And the “level of RANTES” value (human CD14+ monocytes; adherent CD14+ monocytes, IFN-γ stimulated, FIG. 10)?
Its value is “reduced”.

What about the “level of RANTES” value (human CD14+ monocytes; adherent CD14+ monocytes, RPMI-8228 conditioned media stimulated, FIG. 11) of the same substance?
The value was “reduced”.

What about the “level of TNF-α” value (human CD14+ monocytes; adherent CD14+ monocytes, basal level, FIG. 11) of the same substance?
Its value is “reduced the basal level”.

What about the “levels of IL-6, MCP-1, TNF-α, and IL-8” value (human CD14+ monocytes; adherent CD14+ monocytes, basal levels and IFN-γ stimulated levels, 48 hours, FIG. 10) of the same substance?
Its value is “reduced”.

And the “levels of IL-6, MCP-1, and IL-8” value (human CD14+ monocytes; adherent CD14+ monocytes, basal levels and RPMI-8228 conditioned media stimulated levels, FIG. 11)?
Its value is “reduced”.

And the “levels of IL-6, IL-8, TNF-α and MCP-1” value (human CD14+ monocytes; non-adherent CD14+ monocytes upon exposure to SGN-33, FIG. 12)?
The value was “small increases”.

And the “production of cytokines, chemokines and growth factors” value (human CD14+ monocytes; non-adherent CD14+ monocytes, IFN-γ, FIG. 12)?
The value was “not inhibited”.

What about the “levels of IL-6, MCP-1, IL8 and RANTES” value (human CD14+ monocytes; non-adherent CD14+ monocytes, stimulated by RPMI-8226 conditioned media, FIG. 12) of the same substance?
The value was “reduced”.

What about the “IFN-γ-stimulated production of IL-10, IL-10, IL-12, and MIP-1α” value (human CD14+ monocytes; primary human monocytes treated 1 hr prior to IFN-γ, supernatants 18 h later, p<0.001, FIG. 19) of the same substance?
Its value is “significantly reduced”.

And the “levels of TNF-α” value (human CD14+ monocytes; primary human monocytes, various doses of SGN-33, 1 hr prior to IFN-γ, 18 h, p<0.05, FIG. 20)?
Its value is “significantly reduced levels of TNF-α in a dose-dependent manner”.

What about the tolerability ([2]; 1.5 mg/kg/wk, N=6, previously untreated patients, average age 76 years) of the same substance?
The tolerability was “well tolerated”.

And the “patients achieving CR” value ([2]; among 18 patients with AML)?
The value was 4.

What about the “patients achieving CR with incomplete platelet recovery” value ([2]; among 18 patients with AML) of the same substance?
The value was 1.

What about the antitumor activity ([2]; an elderly patient with previously untreated AML) of the same substance?
Its antitumor activity is “antitumor activity was observed”.

And the maximal tolerated dose ([2]; at 1.5 mg/kg/wk, N=6)?
Its maximal tolerated dose is “without any evidence that a maximal tolerated dose has been reached”.

And the “exposure (AUC)” value ([2]; doses 1.5 to 8 mg/kg)?
Its value is “increased relative to dose”.

And the tolerability ([2]; doses up to 8 mg/kg/wk)?
The tolerability was “well tolerated”.

And the anti-SGN-33 immune responses ([2]; first 15 patients tested)?
Its anti-SGN-33 immune responses is “No anti-SGN-33 immune responses were detected”.

And the “Grade 4 adverse events considered related to antibody” value ([2]; human, in vivo)?
The value was “none”.

What about the “infusion reactions during subsequent doses” value ([2]; human, in vivo) of the same substance?
The value was “uncommon”.

And the accumulation ([2]; repeat dosing)?
The accumulation was “accumulation was documented with repeat dosing”.

What about the “Grade 3 adverse events considered related to antibody” value ([2]; tumor lysis syndrome at 4 mg/kg, febrile neutropenia at 8 mg/kg) of the same substance?
The value was 2.

And the “chills associated with the first infusion (most common drug-related adverse event)” value ([2]; weekly iv doses of 1.5 to 8 mg/kg)?
The value was 11/31.

And the dose limiting toxicity ([2]; weekly iv doses of 1.5 to 8 mg/kg, 31 patients)?
Its dose limiting toxicity is “has not been observed”.

What about the “lysis of AML cells (CDC activity)” value (HEL 92.1.7 cells) of the same substance?
The value was “increased lysis of AML cell lines in a dose-dependent manner”.

And the macrophage migration ([3]; 10% human serum or 20% conditioned media from RPMI 8226 cells, p<0.05, FIG. 21)?
The macrophage migration was “significantly reduced”.

What about the “blocking of macrophage migration” value ([3]; SGN-33 added to neuraminidase-treated macrophages, versus neuraminidase alone, FIG. 14C) of the same substance?
The value was “greater blocking effect”.

What about the “movement of the macrophages toward chemoattractants” value ([3]; cells pre-treated, 10% serum or conditioned medium, FIG. 14B) of the same substance?
The value was “significantly reduced”.

And the migration of macrophages ([3]; in response to conditioned tumor cell media, TGF-β, VEGF, TNF-α, and IFN-γ)?
Its migration of macrophages is “significantly opposed the migration”.

What about the “production of IL-8, IP-10, M11b, RANTES, and MCP-1” value (KG-1 AML cell line) of the same substance?
The value was “reduced the production”.

What about the “phosphorylation of CD33” value (CD33 [4]; [8]) of the same substance?
Its value is “resulted in phosphorylation of CD33”.

What about the “recruitment of SHP-1” value (CD33 [4]; [8]) of the same substance?
Its value is “recruitment of SHP-1”.

What about the “recruitment of SHP-1 to the CD33 complex” value (CD33 [4]; HL-60 and monocytes, 30 minutes, FIG. 16) of the same substance?
The value was “resulted in recruitment of SHP-1”.

And the “time to phosphorylation of CD33 and recruitment of SHP-1” value (CD33 [4]; HL-60 cells, 3 μg/ml soluble SGN-33, FIG. 17)?
Its value is ≤ 5 min.

And the “strength of the phosphorylation response (signal on western blot)” value (CD33 [4]; primary monocytes compared to HL-60 or primary macrophages, opposite for SHP-1 signal, FIG. 15)?
Its value is “appeared to be stronger in primary monocytes”.

And the survival rate (HL-60 cells; SGN-33 30 mg/kg)?
The survival rate was ~85%.

What about the survival rate (HL-60 cells; SGN-33 3 or 10 mg/kg) of the same substance?
The survival rate was ~50%.

And the cell viability [5]?
Its cell viability is “without interfering with cell viability”.

What about the cell viability [6] of the same substance?
The cell viability was “not due to an adverse effect”.

What about the “recruitment of SHP-2” value (CD33 [7]; data not shown) of the same substance?
Its value is “did not recruit”.

And the “recruitment of Syk” value (CD33 [7]; data not shown)?
The value was “did not recruit”.

And the “recruitment of SHP-1 to CD33” value (CD33 [7]; soluble or cross-linked antibody, FIG. 3)?
Its value is “recruited SHP-1 to CD33”.

From patent publication US20110038856A1, “METHODS OF TREATING NEOPLASTIC, AUTOIMMUNE AND INFLAMMATORY DISEASES” (Seattle Genetics, Inc., priority 2006, published 2011)
